From patent US20200038392A1, “TOPICAL COMPOSITIONS AND METHODS OF PREPARATION AND USE” (Aldeyra Therapeutics, Inc., priority 2018, published 2020)
In brackets after ≈: the same amount, converted by molar mass. Where two headings read alike, the source gives them in different places.

What was measured:
[1] = type: physicochemical
From the text: It is important to note that the comparison formulation has a nominal ADX-102 concentration of 1.0% w/w, which was higher than that observed in the aqueous phase of the comparison formulation (0.31% w/w). […] However, it is possible that oil phase excipients may assist in solubilizing ADX-102, allowing it to partition between phases.

[2] = ADX-102 oxidation investigation: peroxide spiking (H2O2, NMP) and high temperature stress in PEG 400; type: physicochemical; details: both peroxide spiking experiments (H2O2 and NMP); t=48 h at 70° C.
Experimental: A preliminary study was performed in an attempt to degrade ADX-102 to a suitable level such that oxidation products observed during long-term stability could be detected. To this end, an ADX-102 in PEG 400 stock solution (0.1% w/w) was prepared and degraded with hydrogen peroxide (H2O2) and N-methylpyrrolidone (NMP) at 0.1 and 1.0% w/w concentrations, respectively. Additionally, the stocks were stressed at 40 and 70° C. to increase degradation. […] Sufficient degradation of ADX-102 was observed following spiking with […] H2O2 and storage at 70° C. for 48 h condition and was therefore considered suitable for use in antioxidant/stabilizer selection experiments described below.

[3] = Solubility of ADX-102 in potential receiver fluid systems; type: physicochemical; details: aqueous with cosolvent or surfactant or cyclodextrin
Experimental: The solubility of the drug in a range of receiver fluid systems was determined to ensure that drug release was not limited by the solubility of ADX-102 in the receptor compartment of Franz cells. The receiver fluids selected for investigation were: ethanol and water (50:50 v/v), 2% Brij 98 in ethanol and water (50:50 v/v), 20% PEG in water, 20% PEG 400 in ethanol and water (50:50 v/v) and 2% Tween 80 in water. The findings are summarized below.

[4] = Saturated solubility of ADX-102 in DoE solvent systems; type: physicochemical; details: solvent system SS26; range in brackets
Experimental: Following the visual assessment of placebo formulations, a DoE mixture design for ADX-102 aqueous phase solvent systems was prepared, as shown in Table 22. This was performed in order to assess the solubility of ADX-102 in solvent systems and to confirm that at least a 1.0% w/w and a 5% w/w concentration of ADX-102 in the aqueous phase of the formulation was obtainable. The following excipient levels were assessed during the solvent system DoE experiments: • Water: 0-50% • Transcutol® HP: 0-20% • SR PEG 400: 0-60% • Ethanol: 0-20% • Propylene glycol: 0-15%
SS19, along with SS20 (SS21 was not used due to the high levels of Transcutol® HP), were used as a base for further solvent system development. SS23-SS26 were prepared, broadly based on these systems, with varying levels of excipient and added antioxidant/stabilizer, and preservative. The compositions of these solvent systems are detailed in Table 25. Additionally, penetration enhancers were varied in the developed solvent system, with SS23 (based on SS19) including no Transcutol® and SS25 including diisopropyl adipate, and in the case of SS24, a humectant (glycerol). It should be noted that SS25 became turbid following the addition of diisopropyl adipate.
The solvent system SS26 was developed in order to manufacture a 5% w/w formulation. […]

[5] = Super-refined PEG 400 versus non-refined PEG 400: saturated solubility and chemical stability of ADX-102; type: physicochemical; details: in PEG 400 (non-super refined)
Experimental: The use and requirement of non-super refined PEG 400 as an excipient was investigated in view of to the higher cost of SR PEG 400. Saturated solubility and chemical stability of ADX-102 in PEG 400 (non-super refined) was performed as described above.

Saturated solubility [1]: 0.31 % w/w
solubility [1]: 0.31%
ADX-102 remaining after degradation [2]: < 70%
solubility ([3]; receiver fluid 1: Ethanol and water (50:50 v/v)): 23.5 mg/mL (≈ 99.5 mM)
solubility ([3]; receiver fluid 1: ethanol and water (50:50 v/v)): 23.6 mg/mL (≈ 99.5 mM)
solubility ([3]; receiver fluid 2: 2% Brij 98 in ethanol and water (50:50 v/v)): 28.3 mg/mL (≈ 120 mM)
solubility ([3]; receiver fluid 3: 20% PEG 400 in water): 1.31 mg/mL (≈ 5.53 mM)
solubility ([3]; receiver fluid 4: 20% PEG 400 in ethanol and water (50:50 v/v)): 20.5 mg/mL (≈ 86.4 mM)
solubility ([3]; receiver fluid 5: 2% Tween 80 in water): 26.3 mg/mL (≈ 111 mM)
solubility ([3]; receiver fluid systems for Franz cells, range over the investigated receiver fluid systems): 1.31 to 28.4 mg/mL (≈ 5.53 to 120 mM)
ADX-102 saturated solubility (% w/w) [4]: 6.85 (6.84-6.86) % w/w
Saturated solubility [5]: > 20.00 % w/w
SMILES: CC(C)(O)c1nc2ccc(Cl)cc2cc1N [ADX-102, 2-[3-amino-6-chloro-quinolin-2-yl]-propan-2-ol]
